Laboratory results: PubChem BioAssay (NCI)
Several values for one entry are separate records, joined by “and”; a condition that tells them apart may be missing. Equal entries are not always repeated.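 Following 48 hours of exposure in 96-well plates, responses at five concentrations were used to interpolate endpoints linearly. GI50 is the concentration that inhibits growth by half. TGI marks complete inhibition of growth.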

Tests used:
Experiment in all cases: NCI-60 cell line screen, 48 h
NCI-H226 lung = test system: NCI-H226 lung
SK-MEL-5 melanoma = test system: SK-MEL-5 melanoma
OVCAR-5 ovarian = test system: OVCAR-5 ovarian
HOP-92 NSCLC = test system: HOP-92 NSCLC
DMS 273 small cell lung = test system: DMS 273 small cell lung
CAKI-1 renal = test system: CAKI-1 renal
MCF7 breast = test system: MCF7 breast
XF 498 CNS = test system: XF 498 CNS
NCI-H460 lung = test system: NCI-H460 lung
HCT-15 colon = test system: HCT-15 colon

Row | SMILES | GI50 (NCI-H226 lung) | TGI (NCI-H226 lung) | TGI (SK-MEL-5 melanoma) | TGI (OVCAR-5 ovarian) | GI50 (HOP-92 NSCLC) | GI50 (DMS 273 small cell lung) | TGI (DMS 273 small cell lung) | GI50 (CAKI-1 renal) | TGI (CAKI-1 renal) | TGI (MCF7 breast) | GI50 (XF 498 CNS) | TGI (XF 498 CNS) | TGI (NCI-H460 lung) | TGI (HOP-92 NSCLC) | TGI (HCT-15 colon) | GI50 (SK-MEL-5 melanoma) | GI50 (OVCAR-5 ovarian) | GI50 (HCT-15 colon) | GI50 (NCI-H460 lung)
1 | Cc1cc(-c2c(F)cc3c4nn([C@H]5CC[C@@H](N(C)C)CC5)c(=O)c-4cn(C4CC4)c3c2F)cc(C)n1 | 36.8 nM | 0.118 µM and 0.586 µM | 0.982 µM | 14.2 µM | 244 nM | 30 nM | 0.0372 µM and 0.172 µM | 185 nM | 0.346 µM and 1.11 µM | > 100 µM | 394 nM | 0.757 µM and 2.29 µM | 0.273 µM | – | – | – | – | – | –
2 | COCCOc1cc(C)cc(/C=C(C)/C=C/C2=C(C)CCCC2(C)C)n1 | – | > 100 µM | 39.8 µM | > 100 µM | – | – | > 100 µM | – | > 100 µM | – | – | > 100 µM | > 100 µM | > 100 µM | – | – | – | – | –
3 | NC1c2ccccc2Nc2ccccc21 | – | 27.9 µM | 17.1 µM | 25.6 µM | – | – | 25.7 µM | – | 17.4 µM | – | – | 11.9 µM | 11.1 µM | 16.1 µM | 14 µM | – | – | – | –
4 | CC1OC(=O)C(O)=C1O (stereo unspecified) | – | > 100 µM | > 100 µM | > 100 µM | – | – | > 100 µM | – | > 100 µM | – | – | > 100 µM | > 100 µM | > 100 µM | > 100 µM | – | – | – | –
5 | CC(C)c1cccc(C(C)C)c1N1C(=O)C(=O)C(c2nc3ccccc3o2)C(=O)C1=O | – | > 100 µM | > 100 µM | > 100 µM | – | – | > 100 µM | – | > 100 µM | – | – | 89.9 µM | > 100 µM | > 100 µM | > 100 µM | – | – | – | –
6 | Cc1ccc2nc(NC(=O)C(=O)C(C#N)c3ccc(Cl)cc3)sc2c1 (stereo unspecified) | – | > 50 µM | – | > 50 µM | – | – | > 50 µM | – | > 50 µM | – | – | > 50 µM | > 50 µM | > 50 µM | > 50 µM | – | – | – | –
7 | COc1ccc(C2=Nc3ccccc3SC(C)C2)cc1OC (stereo unspecified) | – | 36.6 µM | 37 µM | 52.6 µM | – | – | 34.8 µM | – | 50.4 µM | – | – | 32.8 µM | 36.3 µM | > 100 µM | 31.9 µM | – | – | – | –
8 | COC1=CC(C2c3cc4c(cc3[C@@H](Nc3ccc(F)cc3)C3COC(=O)[C@H]23)OCO4)=CC(=O)C1=O (stereo partly specified) | – | 39.3 µM | > 43.5 µM | 98.2 µM | – | – | 16.3 µM | – | 31.9 µM | – | – | 27.9 µM | 14.9 µM | 31.7 µM | 26.9 µM | – | – | – | –
9 | O=C(NC(=O)c1c(Cl)nc2sccn12)Nc1ccc(Cl)cc1 | – | 89.7 µM | > 100 µM | > 100 µM | – | – | > 100 µM | – | > 100 µM | > 100 µM | – | 42.3 µM | > 100 µM | 66.6 µM | > 100 µM | – | – | – | –
10 | O=C(O)CCNS(=O)(=O)c1ccc2ccccc2c1 | – | > 100 µM | > 100 µM | > 100 µM | – | – | > 100 µM | – | > 100 µM | – | – | > 100 µM | > 100 µM | > 100 µM | > 100 µM | – | – | – | –
11 | CN(C)CC1CC/C(=C\c2ccc3c(c2)OCO3)C1=O (stereo unspecified) | – | 50.6 µM | 28 µM | 39.3 µM | – | – | 30.9 µM | – | 23.1 µM | 19.8 µM | – | 32.7 µM | 47.9 µM | 33.1 µM | 15 µM | – | – | – | –
12 | CCC[CH2][Sn]([CH2]CCC)([S]C#N)[S]C#N | 1770 nM | 3.25 µM | 1.76 µM | 2.96 µM | 1790 nM | 1630 nM | 4.21 µM | 320 nM | 1.87 µM | – | 779 nM | 1.98 µM | 4.96 µM | 3.5 µM | 2.53 µM | 483 nM | 1560 nM | 1180 nM | 2140 nM
13 | C1CN(c2nnc(N3CCC3)nn2)C1 | – | > 100 µM | 73.3 µM | > 46.4 µM | – | – | > 60.2 µM | – | > 100 µM | > 72.2 µM | – | 46.1 µM | > 100 µM | > 100 µM | > 100 µM | – | – | – | –
14 | CC(C)c1cc(C(C)C)c(S(=O)(=O)N=[N+]=[N-])c(C(C)C)c1 | – | > 100 µM | > 100 µM | > 100 µM | – | – | > 100 µM | – | > 100 µM | – | – | > 100 µM | > 100 µM | > 100 µM | > 100 µM | – | – | – | –
15 | CC1=C(SC#N)S(=O)(=O)N(c2ccccc2)C(C)=C1SC#N | – | 81.6 µM | > 100 µM | > 100 µM | – | – | > 100 µM | – | > 100 µM | – | – | 72.3 µM | > 100 µM | 88.7 µM | > 100 µM | – | – | – | –
16 | O=C(C(=O)n1ncc(Cl)c(Cl)c1=O)n1ncc(Cl)c(Cl)c1=O | – | > 100 µM | 97.2 µM | > 100 µM | – | – | 44.5 µM | – | 44 µM | – | – | > 93 µM | > 100 µM | 49.9 µM | 46.5 µM | – | – | – | –
17 | COc1ccc2nc(C(=O)c3ccccc3)c(C)cc2c1 | – | > 86 µM | 12.3 µM | > 100 µM | – | – | 63.5 µM | – | > 100 µM | – | – | 19.9 µM | > 100 µM | 67.1 µM | > 40.8 µM | – | – | – | –
18 | Cc1c(C(=O)O)n(C)c(=O)n(C)c1=O | – | > 100 µM | > 100 µM | > 100 µM | – | – | > 100 µM | – | > 100 µM | – | – | > 100 µM | > 100 µM | > 100 µM | > 100 µM | – | – | – | –
